# Reference: patent US20050014942A1, “Amide derivatives and drugs” (priority 2001, published 2005)
smiles,measurement,value
"Cc1ncsc1CCNC(=O)c1cnc(N2CCN(C(=O)c3c(-c4ccccc4)n(C)c4cccnc34)CC2)cn1 [Example 7, 5-{4-[(1-methyl-2-phenyl-1H-pyrrolo[3,2-b]pyridin-3-yl)carbonyl]piperazin-1-yl}-N-[2-(4-methyl-1,3-thiazol-5-yl)ethyl]pyrazine-2-carboxamide]",melting point,224.6 °C
